{"source": "ChEMBL document CHEMBL5058641", "about": "“Data for DCP probe TP-050” (2022)", "key": {"[1]": {"molecular_target": "T1, 5-hydroxytryptamine receptor 1D (Homo sapiens, UniProt P28221)", "T1 sequence (P28221 whole entry)": "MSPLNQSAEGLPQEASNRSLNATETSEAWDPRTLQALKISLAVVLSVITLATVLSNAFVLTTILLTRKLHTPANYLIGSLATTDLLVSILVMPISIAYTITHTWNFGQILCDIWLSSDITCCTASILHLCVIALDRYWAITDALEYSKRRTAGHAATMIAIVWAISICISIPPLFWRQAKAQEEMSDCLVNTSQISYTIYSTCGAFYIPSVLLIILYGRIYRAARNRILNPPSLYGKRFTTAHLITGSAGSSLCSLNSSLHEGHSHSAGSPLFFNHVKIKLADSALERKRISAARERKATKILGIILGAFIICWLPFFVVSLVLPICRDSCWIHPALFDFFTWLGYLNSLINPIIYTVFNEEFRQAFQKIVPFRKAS", "test": "GPCRScan assay: inhibition of 5-HT1D", "set-up": "radioligand conc. used [nm] 1.0 – 2.0, parental cells HEKT"}, "[2]": {"molecular_target": "T2, Sodium-dependent dopamine transporter (Homo sapiens, UniProt Q01959)", "T2 sequence (Q01959 whole entry)": "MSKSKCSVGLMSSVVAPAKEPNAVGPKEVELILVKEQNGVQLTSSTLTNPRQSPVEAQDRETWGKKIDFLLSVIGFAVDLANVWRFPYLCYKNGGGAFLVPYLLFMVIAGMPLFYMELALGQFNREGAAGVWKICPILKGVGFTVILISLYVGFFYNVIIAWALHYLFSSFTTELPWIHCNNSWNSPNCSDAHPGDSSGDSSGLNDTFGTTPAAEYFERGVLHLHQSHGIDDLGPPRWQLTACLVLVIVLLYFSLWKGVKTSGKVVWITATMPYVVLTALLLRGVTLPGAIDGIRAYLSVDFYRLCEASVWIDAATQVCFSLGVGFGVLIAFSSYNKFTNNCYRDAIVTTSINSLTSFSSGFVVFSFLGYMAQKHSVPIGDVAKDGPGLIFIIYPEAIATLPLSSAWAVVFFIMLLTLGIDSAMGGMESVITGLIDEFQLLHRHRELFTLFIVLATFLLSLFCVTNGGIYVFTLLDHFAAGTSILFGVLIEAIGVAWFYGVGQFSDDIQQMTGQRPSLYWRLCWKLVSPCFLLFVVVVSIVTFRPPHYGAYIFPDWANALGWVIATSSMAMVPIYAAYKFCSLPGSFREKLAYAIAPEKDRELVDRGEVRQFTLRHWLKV", "test": "GPCRScan assay: inhibition of DAT", "set-up": "radioligand conc. used [nm] 3.6 – 16.0, parental cells stable HEK"}, "[3]": {"test": "AMPA receptor scintillation proximity binding assay", "set-up": "species or system Homo sapiens"}, "[4]": {"molecular_target": "Glutamate receptor ionotropic, NMDA 2B (Homo sapiens, UniProt Q05586+Q13224)", "test": "GluN2B-containing NMDA receptor (Ca2+ influx) assay (EC50)"}, "[5]": {"molecular_target": "Glutamate receptor ionotropic, NMDA 2C (Homo sapiens, UniProt Q05586+Q14957)", "test": "GluN2C-containing NMDA receptor (Ca2+ influx) assay (EC50)"}, "[6]": {"molecular_target": "Glutamate receptor ionotropic, NMDA 2D (Homo sapiens, UniProt O15399+Q05586)", "test": "GluN2D-containing NMDA receptor (Ca2+ influx) assay (EC50)"}, "[7]": {"molecular_target": "Neuronal acetylcholine receptor; alpha4/beta2 (Homo sapiens, UniProt P17787+P43681)", "test": "nAChR(a4/b2) Eurofins SafetyScreen (Other)", "set-up": "species or system Blocker"}, "[8]": {"molecular_target": "Insulin receptor (Homo sapiens, UniProt P06213)", "test": "INSR Eurofins SafetyScreen (Other)", "set-up": "species or system Inhibitor"}, "[9]": {"molecular_target": "Voltage-dependent L-type calcium channel subunit alpha-1C (Homo sapiens, UniProt Q13936)", "test": "CAV1.2 Eurofins SafetyScreen (Other)", "set-up": "species or system Blocker"}, "[10]": {"molecular_target": "Gamma-aminobutyric acid receptor subunit alpha-1 (Homo sapiens, UniProt P14867)", "test": "GABAA Eurofins SafetyScreen (Other)", "set-up": "species or system Blocker"}, "[11]": {"molecular_target": "Voltage-gated inwardly rectifying potassium channel KCNH2 (Homo sapiens, UniProt Q12809)", "test": "hERG Eurofins SafetyScreen (Other)", "set-up": "species or system Blocker"}, "[12]": {"molecular_target": "5-hydroxytryptamine receptor 3A (Homo sapiens, UniProt P46098)", "test": "HTR3A Eurofins SafetyScreen (Other)", "set-up": "species or system Blocker"}, "[13]": {"molecular_target": "Potassium voltage-gated channel subfamily KQT member 1 (Homo sapiens, UniProt P51787)", "test": "KvLQT1/minK Eurofins SafetyScreen (Other)", "set-up": "species or system Blocker"}, "[14]": {"molecular_target": "Prostaglandin G/H synthase 1 (Homo sapiens, UniProt P23219)", "test": "COX1 Eurofins SafetyScreen (Other)", "set-up": "species or system Inhibitor"}, "[15]": {"molecular_target": "Prostaglandin G/H synthase 2 (Homo sapiens, UniProt P35354)", "test": "COX2 Eurofins SafetyScreen (Other)", "set-up": "species or system Inhibitor"}, "[16]": {"molecular_target": "Amine oxidase [flavin-containing] A (Homo sapiens, UniProt P21397)", "test": "MAOA Eurofins SafetyScreen (Other)", "set-up": "species or system Inhibitor"}, "[17]": {"molecular_target": "3',5'-cyclic-AMP phosphodiesterase 4D (Homo sapiens, UniProt Q08499)", "test": "PDE4D2 Eurofins SafetyScreen (Other)", "set-up": "species or system Inhibitor"}, "[18]": {"molecular_target": "T2, Sodium-dependent dopamine transporter", "test": "DAT Eurofins SafetyScreen (Other)", "set-up": "species or system Blocker"}, "[19]": {"molecular_target": "Sodium-dependent serotonin transporter (Homo sapiens, UniProt P31645)", "test": "SERT Eurofins SafetyScreen (Other)", "set-up": "species or system Blocker"}, "[20]": {"molecular_target": "Muscarinic acetylcholine receptor M1 (Homo sapiens, UniProt P11229)", "sequence (P11229 whole entry)": "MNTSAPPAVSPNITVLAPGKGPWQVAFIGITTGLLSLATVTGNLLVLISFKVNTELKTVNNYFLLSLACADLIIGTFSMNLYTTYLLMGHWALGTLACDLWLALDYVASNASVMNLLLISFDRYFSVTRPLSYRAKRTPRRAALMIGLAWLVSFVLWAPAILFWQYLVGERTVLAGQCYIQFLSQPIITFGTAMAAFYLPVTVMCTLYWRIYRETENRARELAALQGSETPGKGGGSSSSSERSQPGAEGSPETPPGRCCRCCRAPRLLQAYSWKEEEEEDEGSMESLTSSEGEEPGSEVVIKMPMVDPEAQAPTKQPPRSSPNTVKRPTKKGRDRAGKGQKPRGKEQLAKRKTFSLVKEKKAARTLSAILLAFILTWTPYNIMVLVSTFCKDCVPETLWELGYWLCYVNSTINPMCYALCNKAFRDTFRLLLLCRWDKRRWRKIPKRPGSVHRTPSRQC", "test": "CHRM1 Eurofins SafetyScan (Receptor)"}, "[21]": {"molecular_target": "Alpha-1A adrenergic receptor (Homo sapiens, UniProt P35348)", "sequence (P35348 whole entry)": "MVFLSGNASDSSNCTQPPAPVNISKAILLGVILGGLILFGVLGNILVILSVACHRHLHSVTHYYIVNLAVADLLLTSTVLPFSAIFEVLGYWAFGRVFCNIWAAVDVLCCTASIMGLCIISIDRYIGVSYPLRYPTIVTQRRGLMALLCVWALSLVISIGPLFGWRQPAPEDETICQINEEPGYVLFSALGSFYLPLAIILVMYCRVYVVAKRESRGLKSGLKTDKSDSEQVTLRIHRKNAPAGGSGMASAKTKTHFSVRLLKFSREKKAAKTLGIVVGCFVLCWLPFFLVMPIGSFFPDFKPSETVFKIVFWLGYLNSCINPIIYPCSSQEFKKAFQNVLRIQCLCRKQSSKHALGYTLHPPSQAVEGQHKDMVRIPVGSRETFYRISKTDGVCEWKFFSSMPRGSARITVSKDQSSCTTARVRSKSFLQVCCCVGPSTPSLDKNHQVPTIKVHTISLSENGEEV", "test": "ADRA1A Eurofins SafetyScan (Receptor)"}, "[22]": {"molecular_target": "Alpha-2A adrenergic receptor (Homo sapiens, UniProt P08913)", "sequence (P08913 whole entry)": "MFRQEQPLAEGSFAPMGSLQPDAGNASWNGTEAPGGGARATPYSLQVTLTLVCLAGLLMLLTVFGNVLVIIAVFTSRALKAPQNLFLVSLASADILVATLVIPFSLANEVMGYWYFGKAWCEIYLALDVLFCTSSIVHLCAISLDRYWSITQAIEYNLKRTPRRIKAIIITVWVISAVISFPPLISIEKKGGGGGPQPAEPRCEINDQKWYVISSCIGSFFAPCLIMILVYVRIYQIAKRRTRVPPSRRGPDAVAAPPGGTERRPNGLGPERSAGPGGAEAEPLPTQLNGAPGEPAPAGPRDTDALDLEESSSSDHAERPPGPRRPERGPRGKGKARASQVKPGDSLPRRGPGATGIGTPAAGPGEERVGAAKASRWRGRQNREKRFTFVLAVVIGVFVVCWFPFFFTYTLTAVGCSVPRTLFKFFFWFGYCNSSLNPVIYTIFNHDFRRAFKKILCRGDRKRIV", "test": "ADRA2A Eurofins SafetyScan (Receptor)"}, "[23]": {"molecular_target": "Muscarinic acetylcholine receptor M2 (Homo sapiens, UniProt P08172)", "sequence (P08172 whole entry)": "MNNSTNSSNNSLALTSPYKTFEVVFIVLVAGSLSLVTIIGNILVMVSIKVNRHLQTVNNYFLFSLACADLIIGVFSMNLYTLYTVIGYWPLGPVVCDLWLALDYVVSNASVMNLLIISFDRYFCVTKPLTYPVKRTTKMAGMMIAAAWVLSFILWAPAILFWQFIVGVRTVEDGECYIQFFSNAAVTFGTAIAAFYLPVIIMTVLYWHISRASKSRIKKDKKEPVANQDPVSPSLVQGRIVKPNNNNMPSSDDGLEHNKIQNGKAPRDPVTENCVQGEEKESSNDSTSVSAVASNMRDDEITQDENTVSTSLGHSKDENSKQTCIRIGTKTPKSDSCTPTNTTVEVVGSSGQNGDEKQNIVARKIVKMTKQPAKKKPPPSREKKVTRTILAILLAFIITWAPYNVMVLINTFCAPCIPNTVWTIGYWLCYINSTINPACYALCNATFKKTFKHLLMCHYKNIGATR", "test": "CHRM2 Eurofins SafetyScan (Receptor)"}, "[24]": {"molecular_target": "Cannabinoid receptor 2 (Homo sapiens, UniProt P34972)", "test": "CNR2 Eurofins SafetyScan (Receptor)"}, "[25]": {"molecular_target": "D(1A) dopamine receptor (Homo sapiens, UniProt P21728)", "sequence (P21728 whole entry)": "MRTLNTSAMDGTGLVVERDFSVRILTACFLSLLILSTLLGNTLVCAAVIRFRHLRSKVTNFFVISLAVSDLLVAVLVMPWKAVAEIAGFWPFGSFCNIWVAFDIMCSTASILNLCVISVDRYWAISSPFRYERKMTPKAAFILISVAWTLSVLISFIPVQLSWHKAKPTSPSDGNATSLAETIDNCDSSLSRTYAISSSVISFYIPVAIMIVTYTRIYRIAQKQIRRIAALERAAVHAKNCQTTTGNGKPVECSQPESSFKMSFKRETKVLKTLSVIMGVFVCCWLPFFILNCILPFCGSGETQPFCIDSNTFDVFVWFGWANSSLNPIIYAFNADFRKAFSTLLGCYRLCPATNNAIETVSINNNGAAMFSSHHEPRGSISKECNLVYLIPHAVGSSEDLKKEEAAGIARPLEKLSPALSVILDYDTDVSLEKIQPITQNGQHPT", "test": "DRD1 Eurofins SafetyScan (Receptor)"}, "[26]": {"molecular_target": "Endothelin-1 receptor (Homo sapiens, UniProt P25101)", "test": "EDNRA Eurofins SafetyScan (Receptor)"}, "[27]": {"molecular_target": "T3, 5-hydroxytryptamine receptor 2B (Homo sapiens, UniProt P41595)", "T3 sequence (P41595 whole entry)": "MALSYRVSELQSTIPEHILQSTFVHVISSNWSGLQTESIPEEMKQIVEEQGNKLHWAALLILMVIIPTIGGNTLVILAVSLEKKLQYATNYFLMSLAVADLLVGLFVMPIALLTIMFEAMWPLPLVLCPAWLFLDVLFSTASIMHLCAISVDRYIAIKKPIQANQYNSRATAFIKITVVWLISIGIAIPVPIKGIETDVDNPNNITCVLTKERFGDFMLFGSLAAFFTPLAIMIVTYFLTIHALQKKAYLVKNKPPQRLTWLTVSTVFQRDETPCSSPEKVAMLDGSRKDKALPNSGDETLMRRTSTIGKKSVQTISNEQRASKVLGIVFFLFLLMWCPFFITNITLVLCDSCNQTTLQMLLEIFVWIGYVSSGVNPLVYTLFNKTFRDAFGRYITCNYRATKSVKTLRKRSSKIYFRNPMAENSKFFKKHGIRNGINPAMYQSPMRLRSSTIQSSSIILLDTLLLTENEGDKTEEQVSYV", "test": "HTR2B Eurofins SafetyScan (Receptor)"}, "[28]": {"molecular_target": "Delta-type opioid receptor (Homo sapiens, UniProt P41143)", "sequence (P41143 whole entry)": "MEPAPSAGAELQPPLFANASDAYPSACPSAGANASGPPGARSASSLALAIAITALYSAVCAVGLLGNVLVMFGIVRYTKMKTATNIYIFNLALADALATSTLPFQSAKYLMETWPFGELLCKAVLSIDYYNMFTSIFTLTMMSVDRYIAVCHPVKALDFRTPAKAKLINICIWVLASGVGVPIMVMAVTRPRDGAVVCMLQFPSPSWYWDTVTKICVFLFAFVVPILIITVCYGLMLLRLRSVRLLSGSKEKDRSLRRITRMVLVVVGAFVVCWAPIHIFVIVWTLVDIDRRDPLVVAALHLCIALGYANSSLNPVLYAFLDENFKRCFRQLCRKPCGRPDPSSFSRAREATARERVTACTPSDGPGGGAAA", "test": "OPRD1 Eurofins SafetyScan (Receptor)"}, "[29]": {"molecular_target": "T4, Kappa-type opioid receptor (Homo sapiens, UniProt P41145)", "T4 sequence (P41145 whole entry)": "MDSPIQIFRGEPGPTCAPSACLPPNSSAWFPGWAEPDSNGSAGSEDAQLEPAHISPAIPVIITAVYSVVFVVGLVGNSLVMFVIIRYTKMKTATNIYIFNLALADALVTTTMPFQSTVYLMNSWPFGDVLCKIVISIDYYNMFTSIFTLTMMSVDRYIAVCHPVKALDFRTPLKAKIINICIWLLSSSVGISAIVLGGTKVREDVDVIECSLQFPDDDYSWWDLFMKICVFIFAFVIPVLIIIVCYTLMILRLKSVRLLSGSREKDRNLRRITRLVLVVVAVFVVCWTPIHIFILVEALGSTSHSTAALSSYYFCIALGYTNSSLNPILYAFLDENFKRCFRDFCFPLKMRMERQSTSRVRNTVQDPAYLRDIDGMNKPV", "test": "OPRK1 Eurofins SafetyScan (Receptor)"}, "[30]": {"molecular_target": "T5, Mu-type opioid receptor (Homo sapiens, UniProt P35372)", "T5 sequence (P35372 whole entry)": "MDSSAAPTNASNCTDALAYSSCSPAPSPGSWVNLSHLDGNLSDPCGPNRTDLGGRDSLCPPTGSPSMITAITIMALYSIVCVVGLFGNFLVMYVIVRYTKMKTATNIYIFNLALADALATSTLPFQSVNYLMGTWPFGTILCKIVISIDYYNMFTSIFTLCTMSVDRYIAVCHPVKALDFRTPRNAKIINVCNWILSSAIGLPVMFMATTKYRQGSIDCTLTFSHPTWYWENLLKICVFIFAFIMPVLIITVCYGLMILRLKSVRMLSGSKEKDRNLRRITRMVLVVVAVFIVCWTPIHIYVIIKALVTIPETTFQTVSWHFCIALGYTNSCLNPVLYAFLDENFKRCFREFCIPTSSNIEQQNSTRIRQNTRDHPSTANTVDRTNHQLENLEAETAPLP", "test": "OPRM1 Eurofins SafetyScan (Receptor)"}, "[31]": {"molecular_target": "5-hydroxytryptamine receptor 1A (Homo sapiens) (UniProt P08908)", "conditions": "Compound concentration 10.0 uM; call rule not given here"}, "[32]": {"molecular_target": "5-hydroxytryptamine receptor 1B (Homo sapiens, UniProt P28222)", "conditions": "Compound concentration 10.0 uM"}, "[33]": {"molecular_target": "T1, 5-hydroxytryptamine receptor 1D", "conditions": "Compound concentration 10.0 uM"}, "[34]": {"molecular_target": "5-hydroxytryptamine receptor 1E (Homo sapiens) (UniProt P28566)", "conditions": "Compound concentration 10.0 uM"}, "[35]": {"molecular_target": "5-hydroxytryptamine receptor 2A (Homo sapiens, UniProt P28223)", "conditions": "Compound concentration 10.0 uM"}, "[36]": {"molecular_target": "T3, 5-hydroxytryptamine receptor 2B", "conditions": "Compound concentration 10.0 uM"}, "[37]": {"molecular_target": "Sodium-dependent noradrenaline transporter (Homo sapiens, UniProt P23975)", "conditions": "Compound concentration 10.0 uM"}, "[38]": {"molecular_target": "T5, Mu-type opioid receptor", "conditions": "Compound concentration 10.0 uM"}, "[39]": {"molecular_target": "T4, Kappa-type opioid receptor", "conditions": "Compound concentration 10.0 uM"}, "[40]": {"molecular_target": "Histamine H1 receptor (Homo sapiens, UniProt P35367)", "conditions": "Compound concentration 10.0 uM"}, "[41]": {"molecular_target": "Histamine H2 receptor (Homo sapiens, UniProt P25021)", "conditions": "Compound concentration 10.0 uM"}, "[42]": {"molecular_target": "Histamine H3 receptor (Homo sapiens) (UniProt Q9Y5N1)", "conditions": "Compound concentration 10.0 uM"}, "[43]": {"molecular_target": "Alpha-1B adrenergic receptor (Homo sapiens) (UniProt P35368)", "conditions": "Compound concentration 10.0 uM"}, "[44]": {"molecular_target": "Beta-1 adrenergic receptor (Homo sapiens, UniProt P08588)", "conditions": "Compound concentration 10.0 uM"}, "[45]": {"molecular_target": "Muscarinic acetylcholine receptor M5 (Homo sapiens) (UniProt P08912)", "conditions": "Compound concentration 10.0 uM"}, "[46]": {"molecular_target": "Beta-3 adrenergic receptor (Homo sapiens) (UniProt P13945)", "conditions": "Compound concentration 10.0 uM"}}}
{"smiles": "Cc1cn([C@H](C)CC#N)c(=O)c2cc(Cn3nc(C(F)F)cc3Cl)nn12", "values": [{"measurement": "Ki", "setting": "[1]", "result": "> 10", "unit": "µM"}, {"measurement": "pKi", "setting": "[1]", "result": "< 5"}, {"measurement": "Ki", "setting": "[2]; read-out: Ki", "result": 9.53, "unit": "µM"}, {"measurement": "Ki", "setting": "[2]; read-out: pKi (converted)", "result": 9.55, "unit": "µM"}, {"measurement": "IC50", "setting": "[3]", "result": "> 30 µM (not active)"}, {"measurement": "EC50", "setting": "[4]", "result": "> 30 µM (not active)"}, {"measurement": "EC50", "setting": "[5]", "result": "> 30 µM (not active)"}, {"measurement": "EC50", "setting": "[6]", "result": "> 9.6 µM (not active)"}, {"measurement": "IC50", "setting": "[7]", "result": "> 10", "unit": "µM"}, {"measurement": "IC50", "setting": "[8]", "result": "> 10", "unit": "µM"}, {"measurement": "IC50", "setting": "[9]", "result": "> 10", "unit": "µM"}, {"measurement": "IC50", "setting": "[10]", "result": "> 10", "unit": "µM"}, {"measurement": "IC50", "setting": "[11]", "result": "> 10", "unit": "µM"}, {"measurement": "IC50", "setting": "[12]", "result": "> 10", "unit": "µM"}, {"measurement": "IC50", "setting": "[13]", "result": "> 10", "unit": "µM"}, {"measurement": "IC50", "setting": "[14]", "result": "> 10", "unit": "µM"}, {"measurement": "IC50", "setting": "[15]", "result": "> 10", "unit": "µM"}, {"measurement": "IC50", "setting": "[16]", "result": "> 10", "unit": "µM"}, {"measurement": "IC50", "setting": "[17]", "result": "> 10", "unit": "µM"}, {"measurement": "IC50", "setting": "[18]", "result": "> 10", "unit": "µM"}, {"measurement": "IC50", "setting": "[19]", "result": "> 10", "unit": "µM"}, {"measurement": "EC50", "setting": "[20]", "result": "> 10", "unit": "µM"}, {"measurement": "IC50", "setting": "[20]", "result": "> 10", "unit": "µM"}, {"measurement": "EC50", "setting": "[21]", "result": "> 10", "unit": "µM"}, {"measurement": "IC50", "setting": "[21]", "result": "> 10", "unit": "µM"}, {"measurement": "EC50", "setting": "[22]", "result": "> 10", "unit": "µM"}, {"measurement": "IC50", "setting": "[22]", "result": "> 10", "unit": "µM"}, {"measurement": "EC50", "setting": "[23]", "result": "> 10", "unit": "µM"}, {"measurement": "IC50", "setting": "[23]", "result": "> 10", "unit": "µM"}, {"measurement": "EC50", "setting": "[24]", "result": "> 10", "unit": "µM"}, {"measurement": "IC50", "setting": "[24]", "result": "> 10", "unit": "µM"}, {"measurement": "EC50", "setting": "[25]", "result": "> 10", "unit": "µM"}, {"measurement": "IC50", "setting": "[25]", "result": "> 10", "unit": "µM"}, {"measurement": "EC50", "setting": "[26]", "result": "> 10", "unit": "µM"}, {"measurement": "IC50", "setting": "[26]", "result": "> 10", "unit": "µM"}, {"measurement": "EC50", "setting": "[27]", "result": "> 10", "unit": "µM"}, {"measurement": "IC50", "setting": "[27]", "result": "> 10", "unit": "µM"}, {"measurement": "EC50", "setting": "[28]", "result": "> 10", "unit": "µM"}, {"measurement": "IC50", "setting": "[28]", "result": "> 10", "unit": "µM"}, {"measurement": "EC50", "setting": "[29]", "result": "> 10", "unit": "µM"}, {"measurement": "IC50", "setting": "[29]", "result": "> 10", "unit": "µM"}, {"measurement": "EC50", "setting": "[30]", "result": "> 10", "unit": "µM"}, {"measurement": "IC50", "setting": "[30]", "result": "> 10", "unit": "µM"}, {"measurement": "inhibition", "setting": "[31]", "result": -5.4, "unit": "%"}, {"measurement": "inhibition", "setting": "[32]", "result": 21.7, "unit": "%"}, {"measurement": "inhibition", "setting": "[33]", "result": 90.8, "unit": "%"}, {"measurement": "inhibition", "setting": "[34]", "result": 6.65, "unit": "%"}, {"measurement": "inhibition", "setting": "[35]", "result": -5.37, "unit": "%"}, {"measurement": "inhibition", "setting": "[36]", "result": 42.7, "unit": "%"}, {"measurement": "inhibition", "setting": "[37]", "result": -4, "unit": "%"}, {"measurement": "inhibition", "setting": "[38]", "result": 0.85, "unit": "%"}, {"measurement": "inhibition", "setting": "[39]", "result": 2.27, "unit": "%"}, {"measurement": "inhibition", "setting": "[40]", "result": 31.7, "unit": "%"}, {"measurement": "inhibition", "setting": "[41]", "result": 3.64, "unit": "%"}, {"measurement": "inhibition", "setting": "[42]", "result": 34.8, "unit": "%"}, {"measurement": "inhibition", "setting": "[43]", "result": -6.73, "unit": "%"}, {"measurement": "inhibition", "setting": "[44]", "result": 4.09, "unit": "%"}, {"measurement": "inhibition", "setting": "[45]", "result": 17.9, "unit": "%"}, {"measurement": "inhibition", "setting": "[46]", "result": -3.8, "unit": "%"}]}
